Values quoted from earlier work as cited in patent publication US20210290548A1, “FORMULATIONS OF RALTEGRAVIR” (Merck Sharp & Dohme Corp., priority 2018, published 2021).
Read-outs that look alike come from different tables or passages of the source.

Cc1nnc(C(=O)NC(C)(C)c2nc(C(=O)NCc3ccc(F)cc3)c([O-])c(=O)n2C)o1.[K+] [Raltegravir potassium, N-[(4-Fluorophenyl)methyl]-1,6-dihydro5-hydroxy-1-methyl-2-[1-methyl-1-[[(5-methyl-1,3,4-oxadiazol-2-yl)carbonyl]amino]ethyl]-6-oxo-4pyrimidinecarboxamide monopotassium salt]
solubility (acetonitrile): very slightly soluble | solubility (ethanol): very slightly soluble | solubility (isopropanol): insoluble | solubility (methanol): slightly soluble | solubility (water): soluble
